Common to all, as to format: cell-based
Test [1] addresses T1, human muscarinic M4 receptor (Homo sapiens, UniProt P08173).
T1 construct: expressed in transfected cells
T1 sequence (P08173 1-479): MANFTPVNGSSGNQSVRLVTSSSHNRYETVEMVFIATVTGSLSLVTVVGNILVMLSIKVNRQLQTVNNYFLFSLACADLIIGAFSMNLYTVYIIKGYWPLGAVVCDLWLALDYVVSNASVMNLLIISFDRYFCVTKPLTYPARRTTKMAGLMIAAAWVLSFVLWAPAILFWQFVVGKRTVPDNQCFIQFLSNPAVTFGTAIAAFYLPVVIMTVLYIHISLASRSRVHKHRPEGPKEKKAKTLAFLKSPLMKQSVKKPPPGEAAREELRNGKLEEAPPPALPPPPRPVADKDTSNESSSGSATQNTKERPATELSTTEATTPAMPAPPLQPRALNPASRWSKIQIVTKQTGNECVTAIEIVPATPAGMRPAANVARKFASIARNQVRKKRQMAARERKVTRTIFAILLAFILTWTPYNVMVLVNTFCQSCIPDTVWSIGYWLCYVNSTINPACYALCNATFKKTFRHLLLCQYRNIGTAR
Nature of the test: Alphascreen Surefire phospho-ERK1/2 functional assay, M4. The note with it: for EC50: phospho-ERK1/2, read-out: pEC50 M4 (converted); for Emax: CHO, read-out: M4 % Emax cf. ACh, CHO cells stably expressing human M4. In outline:
(§1)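 Read-out: AlphaScreen SureFire signal for phospho-ERK1/2 in lysates of stably transfected CHO cells, read after 2 h in the dark. Cells were serum-starved overnight and given agonist for 5 min at 37 °C. Values are pEC50 and Emax.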

Test [2] concerns the target T2, human muscarinic M2 receptor (Homo sapiens, UniProt P08172).
T2 sequence (P08172 1-466): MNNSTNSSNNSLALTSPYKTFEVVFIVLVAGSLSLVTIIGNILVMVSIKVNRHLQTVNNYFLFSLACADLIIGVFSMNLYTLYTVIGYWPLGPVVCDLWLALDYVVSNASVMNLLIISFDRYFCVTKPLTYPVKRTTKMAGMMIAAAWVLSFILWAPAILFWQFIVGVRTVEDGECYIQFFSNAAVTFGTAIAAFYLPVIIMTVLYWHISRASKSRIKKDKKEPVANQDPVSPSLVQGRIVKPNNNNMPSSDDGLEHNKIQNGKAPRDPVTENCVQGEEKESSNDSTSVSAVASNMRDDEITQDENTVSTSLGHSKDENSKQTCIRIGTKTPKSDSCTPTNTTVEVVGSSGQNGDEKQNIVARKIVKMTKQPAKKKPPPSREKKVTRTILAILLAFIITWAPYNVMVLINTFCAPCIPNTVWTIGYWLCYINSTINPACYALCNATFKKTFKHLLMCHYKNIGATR
Kind of test: Alphascreen Surefire phospho-ERK1/2 functional assay, M2. As to conditions: for EC50: CHO cells stably expressing human M2, phospho-ERK1/2, read-out: pEC50 M2 (converted); for Emax: CHO, read-out: M2 % Emax cf. ACh. The protocol: (§2) Functional assays were performed using the Alphascreen Surefire phospho-ERK1/2 assay (Crouch & Osmond, Comb. Chem. High Throughput Screen, 2008). ERK1/2 phosphorylation is a downstream consequence of both Gq/11 and Gi/o protein coupled receptor activation, making it highly suitable for the assessment of M1, M3 (Gq/11 coupled) and M2, M4 receptors (Gi/o coupled), rather than using different assay formats for different receptor subtypes. CHO cells stably expressing the human muscarinic M1, M2, M3 or M4 receptor were plated (25K/well) onto 96-well tissue culture plates in MEM-alpha+10% dialysed FBS. Once adhered, cells were serum-starved overnight. Agonist stimulation was performed by the addition of 5 μL agonist to the cells for 5 min (37° C.). Media was removed and 50 μL of lysis buffer added. After 15 min, a 4 μL sample was transferred to 384-well plate and 7 μL of detection mixture added. Plates were incubated for 2 h with gentle agitation in the dark and then read on a PHERAstar plate reader.
(§3) pEC50 and Emax figures were calculated from the resulting data for each receptor subtype.
Background: Alpha assays give light when donor and acceptor beads are brought close together.

Test [3] concerns the target T3, human muscarinic M1 receptor (Homo sapiens, UniProt P11229).
T3 sequence (P11229 1-460): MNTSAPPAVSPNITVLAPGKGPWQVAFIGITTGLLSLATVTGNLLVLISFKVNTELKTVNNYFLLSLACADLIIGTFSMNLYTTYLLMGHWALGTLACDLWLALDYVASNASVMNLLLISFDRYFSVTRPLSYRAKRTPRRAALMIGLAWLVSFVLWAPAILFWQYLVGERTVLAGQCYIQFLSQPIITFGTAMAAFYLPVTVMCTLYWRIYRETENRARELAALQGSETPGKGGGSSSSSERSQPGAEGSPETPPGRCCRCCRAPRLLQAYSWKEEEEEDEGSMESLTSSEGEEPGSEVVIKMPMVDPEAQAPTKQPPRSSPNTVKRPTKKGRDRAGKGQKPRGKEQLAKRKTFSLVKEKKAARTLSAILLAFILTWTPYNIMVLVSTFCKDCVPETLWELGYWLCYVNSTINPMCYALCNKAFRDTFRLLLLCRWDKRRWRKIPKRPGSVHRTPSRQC
Nature of the test: Alphascreen Surefire phospho-ERK1/2 functional assay, M1. As to conditions: for EC50: phospho-ERK1/2, read-out: pEC50 M1 (converted); for Emax: CHO, read-out: M1 % Emax cf. ACh, CHO cells stably expressing human M1. In outline: as §1

Test [4] concerns the target T4, human muscarinic M3 receptor (Homo sapiens, UniProt P20309).
T4 construct: expressed in transfected cells
Kind of test: Alphascreen Surefire phospho-ERK1/2 functional assay, M3. The note with it: for EC50: CHO cells stably expressing human M3, phospho-ERK1/2, read-out: pEC50 M3 (converted); for Emax: CHO, read-out: M3 % Emax cf. ACh. The protocol:
as §2, §3

Where [5] appears, read: CHO cells stably expressing human M4.
Where [6] appears, read: CHO cells stably expressing human M1.

Structures are written as SMILES.

T4 sequence (P20309 whole entry): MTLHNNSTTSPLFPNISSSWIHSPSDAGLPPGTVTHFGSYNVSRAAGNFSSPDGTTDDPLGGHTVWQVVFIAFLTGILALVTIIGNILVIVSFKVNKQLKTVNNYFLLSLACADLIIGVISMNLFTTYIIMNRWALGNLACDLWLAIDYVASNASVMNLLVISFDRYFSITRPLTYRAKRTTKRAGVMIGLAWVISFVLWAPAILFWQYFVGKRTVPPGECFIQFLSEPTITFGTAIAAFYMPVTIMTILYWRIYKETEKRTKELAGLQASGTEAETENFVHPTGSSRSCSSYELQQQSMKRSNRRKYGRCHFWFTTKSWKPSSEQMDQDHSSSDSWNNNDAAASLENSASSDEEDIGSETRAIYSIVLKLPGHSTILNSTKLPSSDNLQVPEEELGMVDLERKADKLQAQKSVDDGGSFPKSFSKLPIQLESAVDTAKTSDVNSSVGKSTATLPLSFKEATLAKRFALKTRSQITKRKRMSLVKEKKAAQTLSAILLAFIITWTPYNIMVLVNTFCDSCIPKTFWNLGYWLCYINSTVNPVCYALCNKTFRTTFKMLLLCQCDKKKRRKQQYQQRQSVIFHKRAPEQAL

For the compound `CCOC(=O)N[C@H]1CCN(C2CCC3(CC2)C(=O)Nc2cc(C)ccc23)C1` (single isomer, unassigned) [2-4 isomer 1], the EC50 in test [1] (setting [5]) is more than 15.8 µM; in test [2], more than 15.8 µM; in test [3] (setting [6]), 0.0661 µM; in test [4] it was more than 15.8 µM. The Emax – broadly, the greatest response seen or fitted, relative to the assay's reference – in test [1] (Emax relative to ACh) came to 11%; in test [2], 3%; in test [3] (Emax relative to ACh), 65%; in test [4], 11%.
For `CCOC(=O)N[C@H]1CCN(C2CCC3(CC2)C(=O)Nc2ccc(C)cc23)C1` (single isomer, unassigned) [2-5 isomer 1], the EC50 in test [1] (setting [5]) was more than 15.8 µM; in test [2] it was more than 20 µM; in test [3] (setting [6]), 0.00776 µM; in test [4] it was more than 20 µM. The Emax in test [1] (Emax relative to ACh) came out at 5%; in test [2] it was 13%; in test [3] (Emax relative to ACh) it was 49%; in test [4], 15%.
Consider `CCOC(=O)N[C@H]1CCN(C2CCC3(CC2)C(=O)Nc2cccc(C)c23)C1` (single isomer, unassigned) [2-6 isomer 1], for which the EC50 in test [1] (setting [5]) is 0.0603 µM; in test [2], more than 20 µM; in test [3] (setting [6]), 0.186 µM; in test [4], more than 20 µM. The Emax came out at 54% in test [1] (Emax relative to ACh), 11% in test [2], 66% in test [3] (Emax relative to ACh) and 16% in test [4].
In the case of `CCOC(=O)N[C@H]1CCN(C2CCC3(CC2)C(=O)Nc2cc(F)ccc23)C1` (single isomer, unassigned) [2-7 isomer 2], in test [1] (CHO cells stably expressing human M4, Emax relative to ACh), the “M4 % Emax cf. ACh” value amounted to 16%. Moreover, the EC50 in test [1] (setting [5]) is more than 20 µM; in test [2], more than 20 µM; in test [3] (setting [6]) it was 0.0525 µM; in test [4] it was more than 20 µM. Further, the Emax came to 5% in test [2] and 2% in test [4]. Also, the “M1 % Emax cf. ACh” value in test [3] (CHO cells stably expressing human M1, Emax relative to ACh) came out at 89%.
For `CCOC(=O)N[C@H]1CCN(C2CCC3(CC2)C(=O)Nc2ccc(OC)cc23)C1` (single isomer, unassigned) [2-10 isomer 1], the EC50 in test [1] (setting [5]) is more than 20 µM; in test [2], more than 20 µM; in test [3] (setting [6]), 0.00794 µM; in test [4], more than 20 µM. Also, the Emax in test [1] (Emax relative to ACh) is 39%; in test [2] it was 27%; in test [3] (Emax relative to ACh), 64%; in test [4], 4%.
`CCOC(=O)N[C@H]1CCN(C2CCC3(CC2)C(=O)Nc2ncc(Cl)cc23)C1` (single isomer, unassigned) [2-17 isomer 1]: the EC50 in test [1] (setting [5]) was more than 20 µM; in test [2], more than 20 µM; in test [3] (setting [6]) it was 0.0562 µM; in test [4], more than 20 µM. For the same compound, the Emax in test [1] (Emax relative to ACh) came to 18%; in test [2], 7%; in test [3] (Emax relative to ACh), 48%; in test [4] it was 7%.
On to `CCOC(=O)N(C)[C@@H]1CCN(C2CCC3(CC2)C(=O)Nc2ncccc23)C1` (single isomer, unassigned) [2-18 isomer 1], for which the EC50 in test [1] (setting [5]) is 0.174 µM; in test [2], more than 20 µM; in test [3] (setting [6]), 0.148 µM; in test [4], more than 20 µM. Moreover, the Emax in test [1] (Emax relative to ACh) was found to be 141%; in test [2], 21%; in test [3] (Emax relative to ACh), 122%; in test [4], 11%.
Take `CCOC(=O)N1CCCN(C2CCC(C#N)(c3ccc(Br)cn3)CC2)CC1` (single isomer, unassigned) [3-17 Isomer 1]: the EC50 in test [1] (setting [5]) is 0.0724 µM; in test [2], more than 20 µM; in test [3] (setting [6]), 0.00302 µM; in test [4], more than 20 µM. In addition, the Emax came to 80% in test [1] (Emax relative to ACh), 0% in test [2], 92% in test [3] (Emax relative to ACh) and 0% in test [4].
Turning to `CCOC(=O)N1CCCN(C2CCC(C#N)(c3ccc(OC)cn3)CC2)CC1` (single isomer, unassigned) [3-19 Isomer 2], the EC50 in test [1] (setting [5]) was 1.74 µM; in test [2], more than 20 µM; in test [3] (setting [6]) it was 0.0302 µM; in test [4], more than 20 µM. Besides, the Emax amounted to 39% in test [1] (Emax relative to ACh), 5% in test [2], 101% in test [3] (Emax relative to ACh) and 6% in test [4].
Regarding `CCOC(=O)N1CCCN(C2CCC(C#N)(c3ccc(OCC)cn3)CC2)CC1` (single isomer, unassigned) [3-20 Isomer 2], the EC50 in test [1] (setting [5]) is more than 20 µM; in test [2] it was more than 20 µM; in test [3] (setting [6]), 0.0115 µM; in test [4], more than 20 µM. Moreover, the Emax came out at 7% in test [1] (Emax relative to ACh), 27% in test [2], 139% in test [3] (Emax relative to ACh) and 2% in test [4].
For the compound `CC#CCOC(=O)N1CCCN(C2CCC(C#N)(c3ccncc3)CC2)CC1` (single isomer, unassigned) [3-30 Isomer 1], the EC50 in test [1] (setting [5]) is 0.229 µM; in test [2], more than 20 µM; in test [3] (setting [6]), 0.295 µM; in test [4], more than 20 µM. Also, the Emax in test [1] (Emax relative to ACh) amounted to 72%; in test [2], 6%; in test [3] (Emax relative to ACh) it was 104%; in test [4], 0%.
As for `C#CCOC(=O)N1CCCN(C2CCC(C#N)(c3ccc(OC)cn3)CC2)CC1` (single isomer, unassigned) [3-31 Isomer 1], the EC50 in test [1] (setting [5]) is 2.57 µM; in test [2], more than 20 µM; in test [3] (setting [6]) it was 0.0195 µM; in test [4], more than 20 µM. Also, the Emax in test [1] (Emax relative to ACh) turned out to be 52%; in test [2], 8%; in test [3] (Emax relative to ACh) it was 91%; in test [4], 0%.
In the case of `CC#CCOC(=O)N1CCCN(C2CCC(C#N)(c3ccc(OC)cn3)CC2)CC1` (single isomer, unassigned) [3-32 Isomer 1], the EC50 in test [1] (setting [5]) is 0.759 µM; in test [2], more than 20 µM; in test [3] (setting [6]), 0.0224 µM; in test [4], more than 20 µM. Also, the Emax in test [1] (Emax relative to ACh) stood at 30%; in test [2], 2%; in test [3] (Emax relative to ACh), 106%; in test [4], 0%.
Consider `CCCC(=O)N1CCCN(C2CCC3(CC2)C(=O)Nc2ccccc23)CC1` (single isomer, unassigned) [4-3 isomer 2], for which the EC50 in test [1] (setting [5]) was more than 20 µM; in test [2] it was more than 20 µM; in test [3] (setting [6]), 0.794 µM; in test [4], more than 20 µM. The Emax was 20% in test [1] (Emax relative to ACh), 3% in test [2], 57% in test [3] (Emax relative to ACh) and 2% in test [4].
